{"source": "patent US10882825B2", "about": "“Non-solvated crystal, preparation method and application thereof” (SHENZHEN CHIPSCREEN BIOSCIENCES CO., LTD., priority 2016, dated 2021)", "test": "Stability test of the crystal form (high temperature, high humidity, strong light irradiation; X-ray powder diffraction and HPLC content)", "format": "physicochemical", "details": "high temperature (60° C.), high humidity (90%), strong light irradiation (4500 Lx); day 0 vs day 10", "method": "Test conditions of X-ray powder diffraction: instrument: D/MAX-1200 (Rigaku, Japan); radiation source: Cu-Kα (40 kV, 40 mA).\nTest conditions of stability: high temperature (60° C.), high humidity (90%) and strong light irradiation (4500 Lx) tests are performed according to the Chinese Pharmacopoeia 2010 edition, Part II, Appendix XIX C.\nTest conditions of HPLC: instrument: Dionex UltiMate3000; column: Shim-pack VP-ODS 5 μm 250 L×4.6; detector: VWD-3100, detection wavelength: 256 nm; mobile phase: methanol-water-glacial acetic acid (30:70:0.4); flow rate: 1.0 mL/min, column temperature: 30° C.\nHigh temperature (60° C.), high humidity (90%) and strong light irradiation (4500 Lx) tests of the non-solvated crystal A of example 1, non-solvated crystal B of example 2, and non-solvated crystal C of example 3 were performed according to the Chinese Pharmacopoeia 2010 edition, Part II, Appendix XIX C. Samples on day 0 and day 10 respectively were taken to determine the X-ray powder diffraction pattern and content (HPLC method).", "data": [{"smiles": "COc1ccc2c(Oc3ccc4c(C(=O)Nc5ccccc5N)cccc4c3)ccnc2c1", "note": "[non-solvated crystal A, N-(2-aminophenyl)-6-(7-methoxyquinoline-4-oxo)-1-naphthaleneformamide]", "values": [{"measurement": "content (HPLC method) after stability test", "value": "does not change significantly"}, {"measurement": "crystal form (X-ray powder diffraction pattern) after stability test", "value": "remain unchanged in their original crystal forms"}]}]}
